We go through two compounds from patent publication US20250195855A1, “INGESTIBLE DEVICE FOR DELIVERY OF THERAPEUTIC AGENT TO THE GASTROINTESTINAL TRACT” (BIORA THERAPEUTICS, INC., priority 2022, published 2025).

On the set-up of data set [1]: species or system female Yucatan swine. The following applies: in vivo. Here is the method:
The above externally-triggered study was also performed using semaglutide, a glucagon-like-peptide-1 (GLP-1) receptor agonist that stimulates insulin secretion and suppress glucagon release. Devices filled with ˜0.96 mg of semaglutide were administrated by intraduodenal (ID) endoscopic placement and were externally triggered in the proximal small intestine of the female Yucatan swine. Plasma samples were then collected from 0 to 240 hours post-dose. Systemic concentrations of semaglutide were measured using LC-MS-MS to evaluate the PK of semaglutide with the OBDS device via ID administration (animals 1003-ID; 1004-ID; 1005-ID; 1009-ID; 10053-ID and 1055-ID in FIG. 87) compared with the IV control (animal 1015-IV in FIG. 87).
Seven out of eight (7/8) devices were successfully advanced through the pyloric sphincter via endoscopic placement and triggered in the proximal small intestine.

For data set [2] the following is noted: 40 mg bi-weekly dose; cited from earlier work.

On to `CC[C@H](C)[C@H](NC(=O)[C@H](Cc1ccccc1)NC(=O)[C@H](CCC(=O)O)NC(=O)[C@H](CCCCNC(=O)COCCOCCNC(=O)COCCOCCNC(=O)CC[C@H](NC(=O)CCCCCCCCCCCCCCCCC(=O)O)C(=O)O)NC(=O)[C@H](C)NC(=O)[C@H](C)NC(=O)[C@H](CCC(N)=O)NC(=O)CNC(=O)[C@H](CCC(=O)O)NC(=O)[C@H](CC(C)C)NC(=O)[C@H](Cc1ccc(O)cc1)NC(=O)[C@H](CO)NC(=O)[C@H](CO)NC(=O)[C@@H](NC(=O)[C@H](CC(=O)O)NC(=O)[C@H](CO)NC(=O)[C@@H](NC(=O)[C@H](Cc1ccccc1)NC(=O)[C@@H](NC(=O)CNC(=O)[C@H](CCC(=O)O)NC(=O)C(C)(C)NC(=O)[C@@H](N)Cc1cnc[nH]1)[C@@H](C)O)[C@@H](C)O)C(C)C)C(=O)N[C@@H](C)C(=O)N[C@@H](Cc1c[nH]c2ccccc12)C(=O)N[C@@H](CC(C)C)C(=O)N[C@H](C(=O)N[C@@H](CCCNC(=N)N)C(=O)NCC(=O)N[C@@H](CCCNC(=N)N)C(=O)NCC(=O)O)C(C)C` [semaglutide], for which, in data set [1], the “clinical signs before or after dosing” value is “No significant clinical signs were observed” and the “detectable drug levels up to (post-dosing)” value is “up to 10 days”.

For adalimumab, the “bioavailability, subcutaneous route over IV, estimated in human trials” value in data set [2] is 64%.
